Measurements published in PMC11094368, “Modulating mycobacterial envelope integrity for antibiotic synergy with benzothiazoles” (Life Science Alliance, 2024).

Columns and labels:
Experiment in all cases: microbe, parasite or virus in culture
M. marinum = test system: T1, M. marinum; parameters: Resazurin microtiter plate assay (REMA), fluorescence; MIC90 growth inhibition in HdB medium with Tween-80, 30 °C; details: Mycobacterium marinum, 96 h; MIC90, HdB medium with Tween-80
T1 construct: M^USA (wild type)
Description: The resazurin microtiter plate assay (REMA) was used to determine minimal inhibitory concentrations (MIC) of the compound toward mycobacterial species ([Palomino et al, 2002]). Selected compounds or antibiotics were diluted in the bacterial growth medium as twofold serial dilutions in a 96-well plate. Bacteria were routinely grown until the mid-logarithmic phase, harvested by centrifugation (3,000g, 10 min), washed in PBS supplemented with 0.02% tyloxapol, resuspended in the growth medium, and added to the well plate containing compound dilutions, to achieve the final OD600 of 0.001 per well. […] When the color conversion of the dye was observed, the fluorescence was measured using a BioTek plate reader (Synergy H1), bottom reading mode, and excitation 560 nm/emission 590 nm. The MIC of compounds toward E. coli, Bacillus subtilis, K. pneumoniae, and A. baumannii was determined by tracking changes in the OD600. […] Plates were sealed and incubated at 37°C with 3 mm continuous linear shaking in a BioTek plate reader (Synergy H1), and the bacterial growth was tracked by measuring the OD600 every 15 min. […] Thus, we evaluated compounds from the benzothiazole library for their in vitro activity using the HdB medium with Tween-80 by REMA (Table S6).

Bacillus subtilis 168 = test system: T2, Bacillus subtilis 168; parameters: species or system E. coli, B. subtilis, K. pneumoniae, A. baumannii; bacterial growth inhibition in LB, twofold dilutions, OD600 tracking; details: Bacillus subtilis, 168, read-out: MIC50
T2 construct: 168

[1] = test system: T3, Acinetobacter baumannii 1757; parameters: species or system E. coli, B. subtilis, K. pneumoniae, A. baumannii; bacterial growth inhibition in LB, twofold dilutions, OD600 tracking; details: Acinetobacter baumannii, 1757, read-out: MIC50
T3 construct: 1757

[2] = test system: T4, Acinetobacter baumannii LMG01041; parameters: species or system E. coli, B. subtilis, K. pneumoniae, A. baumannii; bacterial growth inhibition in LB, twofold dilutions, OD600 tracking; details: Acinetobacter baumannii, LMG01041, read-out: MIC50
T4 construct: LMG01041

[3] = test system: T5, Klebsiella pneumoniae LMG20218; parameters: species or system E. coli, B. subtilis, K. pneumoniae, A. baumannii; bacterial growth inhibition in LB, twofold dilutions, OD600 tracking; details: Klebsiella pneumoniae, LMG20218, read-out: MIC50
T5 construct: LMG20218

Escherichia coli K12 = test system: T6, Escherichia coli K12; parameters: species or system E. coli, B. subtilis, K. pneumoniae, A. baumannii; bacterial growth inhibition in LB, twofold dilutions, OD600 tracking; details: Escherichia coli, K12, read-out: MIC50
T6 construct: K12

[4] = test system: T7, Mycobacterium smegmatis MC^2-155; parameters: resazurin microtiter plate assay (REMA), growth inhibition in 7H9 ADS glycerol tyloxapol; details: Mycolicibacterium smegmatis, 24 h, read-out: MIC50
T7 construct: MC2-155

[5] = test system: T8, Mycobacterium abscessus RIVM; parameters: resazurin microtiter plate assay (REMA), growth inhibition in 7H9 ADS glycerol tyloxapol; details: Mycobacteroides abscessus, 48 h, read-out: MIC50
T8 construct: RIVM

[6] = test system: T9, Mycobacterium abscessus 144C; parameters: resazurin microtiter plate assay (REMA), growth inhibition in 7H9 ADS glycerol tyloxapol; details: Mycobacteroides abscessus, 144C, 48 h, read-out: MIC50
T9 construct: 144C

SMILES: CCOc1ccc2nc(N(Cc3ccccc3OC)C(C)=O)sc2c1 [BT-37]
- MIC90 (M. marinum): 0.3 µM
- IC50 (Bacillus subtilis 168): > 40 µM
- IC50 [1]: > 40 µM
- IC50 [2]: > 40 µM
- IC50 [3]: > 40 µM
- IC50 (Escherichia coli K12): > 40 µM
- IC50 [4]: > 40 µM
- IC50 [5]: > 40 µM
- IC50 [6]: > 40 µM

SMILES: CCOc1ccc2nc(N(Cc3ccccc3)C(C)=O)sc2c1 [BT-08, N-Benzyl-N-(6-ethoxybenzo[d]thiazol-2-yl)acetamide]
- IC50 (Bacillus subtilis 168): > 40 µM
- IC50 [1]: > 40 µM
- IC50 [2]: > 40 µM
- IC50 [3]: > 40 µM
- IC50 (Escherichia coli K12): > 40 µM
- IC50 [5]: > 40 µM
- IC50 [6]: > 40 µM
